What was measured:
Type in all cases: functional
SNB-75 = assay: Cytotoxicity against human SNB75 cells assessed as cellular growth at 10 uM by SRB assay
OVCAR-3 = assay: Cytotoxicity against human OVCAR3 cells assessed as cellular growth at 10 uM by SRB assay
SK-OV-3 = assay: Cytotoxicity against human SKOV3 cells assessed as cellular growth at 10 uM by SRB assay
786-0 = assay: Cytotoxicity against human 786-0 cells assessed as cellular growth at 10 uM by SRB assay
T47D = assay: Cytotoxicity against human T47D cells assessed as cellular growth at 10 uM by SRB assay
Hs-578T = assay: Cytotoxicity against human Hs578T cells assessed as cellular growth at 10 uM by SRB assay
NCI-H226 = assay: Cytotoxicity against human NCI-H226 cells assessed as cellular growth at 10 uM by SRB assay
HCT-15 = assay: Cytotoxicity against human HCT15 cells assessed as cellular growth at 10 uM by SRB assay
SF-539 = assay: Cytotoxicity against human SF539 cells assessed as cellular growth at 10 uM by SRB assay
NCI-H522 = assay: Cytotoxicity against human NCI-H522 cells assessed as cellular growth at 10 uM by SRB assay
RXF 393 = assay: Cytotoxicity against human RXF393 cells assessed as cellular growth at 10 uM by SRB assay
SNB-19 = assay: Cytotoxicity against human SNB19 cells assessed as cellular growth at 10 uM by SRB assay
CCRF-CEM = assay: Cytotoxicity against human CCRF-CEM cells assessed as cellular growth at 10 uM by SRB assay
MDA-MB-468 = assay: Cytotoxicity against human MDA-MB-468 cells assessed as cellular growth at 10 uM by SRB assay
BT-549 = assay: Cytotoxicity against human BT549 cells assessed as cellular growth at 10 uM by SRB assay
UO-31 = assay: Cytotoxicity against human UO31 cells assessed as cellular growth at 10 uM by SRB assay
NCI-H23 = assay: Cytotoxicity against human NCI-H23 cells assessed as cellular growth at 10 uM by SRB assay
SK-MEL-5 = assay: Cytotoxicity against human SK-MEL-5 cells assessed as cellular growth at 10 uM by SRB assay
HCT-116 = assay: Cytotoxicity against human HCT116 cells assessed as cellular growth at 10 uM by SRB assay
KM12 = assay: Cytotoxicity against human KM12 cells assessed as cellular growth at 10 uM by SRB assay

**Q.** Which results are given for `Cc1cc(C)c(NC(=O)c2sc3nc4c(cc3c2N)C(=O)CCC4)c(C)c1`?
**A.** Activity (SNB-75): 0%; Activity (OVCAR-3): 13.17%; Activity (SK-OV-3): 10.43%; Activity (786-0): 30.39%; Activity (T47D): 40.64%; Activity (Hs-578T): 17.68%; Activity (NCI-H226): 77.05%; Activity (HCT-15): 31.78%; Activity (SF-539): -6.5%; Activity (NCI-H522): -14.71%; Activity (RXF 393): -6.65%; Activity (SNB-19): 40.22%; Activity (CCRF-CEM): 22.12%; Activity (MDA-MB-468): -27.16%; Activity (BT-549): 56.75%; Activity (UO-31): 56.95%; Activity (NCI-H23): 33.04%; Activity (SK-MEL-5): 11.34%; Activity (HCT-116): 23.12%; Activity (KM12): 27.28%

**Q.** What does the source list for `Nc1c(C(=O)Nc2ccc(Cl)c(Cl)c2)sc2nc(-c3cccs3)ccc12`?
**A.** Activity (SNB-75): 86.26%; Activity (OVCAR-3): 100.29%; Activity (SK-OV-3): 105.1%; Activity (786-0): 88.45%; Activity (T47D): 85.21%; Activity (Hs-578T): 129.34%; Activity (NCI-H226): 96.17%; Activity (HCT-15): 92.1%; Activity (SF-539): 79.24%; Activity (NCI-H522): 81.53%; Activity (RXF 393): 92.71%; Activity (SNB-19): 95.32%; Activity (CCRF-CEM): 82.99%; Activity (MDA-MB-468): 19.37%; Activity (BT-549): 76.11%; Activity (UO-31): 83.99%; Activity (NCI-H23): 68.82%; Activity (SK-MEL-5): 90.4%; Activity (HCT-116): 75.19%; Activity (KM12): 99.94%

**Q.** For `O=C(NCCc1ccc(Cl)cc1)c1[nH]c2ccccc2c1Cl`, which Activity (SNB-75) is on record?
**A.** 89.76%

**Q.** And the Activity (OVCAR-3)?
**A.** 100.99%

**Q.** And the Activity (SK-OV-3)?
**A.** 86.84%

**Q.** What about the Activity (786-0) of the same compound?
**A.** 106.07%

**Q.** What about the Activity (T47D) of the same compound?
**A.** 81.02%

**Q.** What about the Activity (Hs-578T) of the same compound?
**A.** 94.53%

**Q.** And the Activity (NCI-H226)?
**A.** 89.37%

**Q.** What about the Activity (HCT-15) of the same compound?
**A.** 101.72%

**Q.** What about the Activity (SF-539) of the same compound?
**A.** 101.07%

**Q.** What about the Activity (NCI-H522) of the same compound?
**A.** 101.96%

**Q.** And the Activity (RXF 393)?
**A.** 113.7%

**Q.** What about the Activity (SNB-19) of the same compound?
**A.** 98.39%

**Q.** What about the Activity (CCRF-CEM) of the same compound?
**A.** 108.31%

**Q.** And the Activity (MDA-MB-468)?
**A.** 108.58%

**Q.** And the Activity (BT-549)?
**A.** 111.29%

**Q.** And the Activity (UO-31)?
**A.** 73.65%

**Q.** What about the Activity (NCI-H23) of the same compound?
**A.** 92.75%

**Q.** What about the Activity (SK-MEL-5) of the same compound?
**A.** 95.47%

**Q.** What about the Activity (HCT-116) of the same compound?
**A.** 98.39%

**Q.** And the Activity (KM12)?
**A.** 94.49%

**Q.** Which Activity (SNB-75) does the source give for `CC1(C)CCc2cc(-c3ccn(S(=O)(=O)c4ccc(Cl)cc4)n3)ccc2O1` here?
**A.** 92.32%

**Q.** What about the Activity (OVCAR-3) of the same compound?
**A.** 84.01%

**Q.** What about the Activity (SK-OV-3) of the same compound?
**A.** 91.35%

**Q.** What about the Activity (786-0) of the same compound?
**A.** 71.44%

**Q.** And the Activity (T47D)?
**A.** 54.12%

**Q.** And the Activity (Hs-578T)?
**A.** 99.49%

**Q.** What about the Activity (NCI-H226) of the same compound?
**A.** 74.42%

**Q.** What about the Activity (HCT-15) of the same compound?
**A.** 91.33%

**Q.** What about the Activity (SF-539) of the same compound?
**A.** 101.35%

**Q.** What about the Activity (NCI-H522) of the same compound?
**A.** 66.19%

**Q.** And the Activity (RXF 393)?
**A.** 89.02%

**Q.** And the Activity (SNB-19)?
**A.** 100.09%

**Q.** And the Activity (CCRF-CEM)?
**A.** 64.16%

**Q.** What about the Activity (MDA-MB-468) of the same compound?
**A.** 48.91%

**Q.** And the Activity (BT-549)?
**A.** 88.83%

**Q.** And the Activity (UO-31)?
**A.** 75.63%

**Q.** And the Activity (NCI-H23)?
**A.** 65.48%

**Q.** And the Activity (SK-MEL-5)?
**A.** 47.2%

**Q.** And the Activity (HCT-116)?
**A.** 61.1%

**Q.** What about the Activity (KM12) of the same compound?
**A.** 77%

**Q.** Which results are given for `O=C(Nc1nc2ccc(Cl)cc2s1)c1ccc(Cl)cc1Cl`?
**A.** Activity (SNB-75): 114.42%; Activity (OVCAR-3): 109.17%; Activity (SK-OV-3): 105.26%; Activity (786-0): 95.62%; Activity (T47D): 95.96%; Activity (Hs-578T): 113.99%; Activity (NCI-H226): 101.52%; Activity (HCT-15): 100.27%; Activity (SF-539): 101.57%; Activity (NCI-H522): 98.66%; Activity (RXF 393): 112.15%; Activity (SNB-19): 109.5%; Activity (CCRF-CEM): 99.34%; Activity (MDA-MB-468): 105.42%; Activity (BT-549): 111.68%; Activity (UO-31): 101%; Activity (NCI-H23): 99%; Activity (SK-MEL-5): 89.76%; Activity (HCT-116): 105.32%; Activity (KM12): 110.91%

**Q.** `Cc1ccc(NC(=O)c2sc3nc(-c4cccs4)ccc3c2N)cc1C` was tested. Which Activity (SNB-75) did it give?
**A.** 111.99%

**Q.** What about the Activity (OVCAR-3) of the same compound?
**A.** 98.63%

**Q.** What about the Activity (SK-OV-3) of the same compound?
**A.** 112.05%

**Q.** What about the Activity (786-0) of the same compound?
**A.** 105.46%

**Q.** And the Activity (T47D)?
**A.** 96.25%

**Q.** And the Activity (Hs-578T)?
**A.** 110.72%

**Q.** And the Activity (NCI-H226)?
**A.** 107.93%

**Q.** What about the Activity (HCT-15) of the same compound?
**A.** 109.09%

**Q.** And the Activity (SF-539)?
**A.** 118.53%

**Q.** What about the Activity (NCI-H522) of the same compound?
**A.** 100.77%

**Q.** And the Activity (RXF 393)?
**A.** 123.31%

**Q.** And the Activity (SNB-19)?
**A.** 111.2%

**Q.** What about the Activity (CCRF-CEM) of the same compound?
**A.** 97.34%

**Q.** And the Activity (MDA-MB-468)?
**A.** 44.79%

**Q.** What about the Activity (BT-549) of the same compound?
**A.** 133.54%

**Q.** And the Activity (UO-31)?
**A.** 126.96%

**Q.** What about the Activity (NCI-H23) of the same compound?
**A.** 111.92%

**Q.** What about the Activity (SK-MEL-5) of the same compound?
**A.** 98.52%

**Q.** And the Activity (HCT-116)?
**A.** 106.03%

**Q.** And the Activity (KM12)?
**A.** 106.51%

**Q.** Which Activity (SNB-75) does the source give for `Clc1ccc(-c2nc(-c3cccs3)no2)c(Cl)c1` here?
**A.** 63.47%

**Q.** And the Activity (OVCAR-3)?
**A.** 99.18%

**Q.** And the Activity (SK-OV-3)?
**A.** 93.87%

**Q.** What about the Activity (786-0) of the same compound?
**A.** 97.42%

**Q.** What about the Activity (T47D) of the same compound?
**A.** 51.7%

**Q.** What about the Activity (Hs-578T) of the same compound?
**A.** 96.13%

**Q.** And the Activity (NCI-H226)?
**A.** 88.68%

**Q.** What about the Activity (HCT-15) of the same compound?
**A.** 73.54%

**Q.** And the Activity (SF-539)?
**A.** 107.53%

**Q.** And the Activity (NCI-H522)?
**A.** 91.42%

**Q.** And the Activity (RXF 393)?
**A.** 107.35%

**Q.** And the Activity (SNB-19)?
**A.** 104.48%

**Q.** What about the Activity (CCRF-CEM) of the same compound?
**A.** 85.99%

**Q.** And the Activity (MDA-MB-468)?
**A.** 8.37%

**Q.** And the Activity (BT-549)?
**A.** 83.02%

**Q.** What about the Activity (UO-31) of the same compound?
**A.** 70.88%

**Q.** What about the Activity (NCI-H23) of the same compound?
**A.** 92.64%

**Q.** What about the Activity (SK-MEL-5) of the same compound?
**A.** 83.92%

**Q.** What about the Activity (HCT-116) of the same compound?
**A.** 94.56%

**Q.** And the Activity (KM12)?
**A.** 99.27%

Source: ChEMBL document CHEMBL2202954, “The effect of PLC-γ2 inhibitors on the growth of human tumour cells” (2012)
